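Cultured in 96-well plates, cells were exposed to test compound for 48 hours across five concentrations. GI50 is the concentration that inhibits growth by half. TGI marks complete inhibition of growth.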
Assays:
Assay in all cases: DTP human tumour cell line panel, 48 h
[1] = tested on: HCT-15 colon
[2] = tested on: MCF7 breast
[3] = tested on: RPMI-8226 leukemia
[4] = tested on: SK-OV-3 ovarian
[5] = tested on: HL-60(TB) leukemia
[6] = tested on: KM12 colon
[7] = tested on: SF-539 CNS
[8] = tested on: SK-MEL-2 melanoma
[9] = tested on: UACC-257 melanoma
[10] = tested on: OVCAR-5 ovarian
[11] = tested on: M14 melanoma
[12] = tested on: SF-268 CNS
[13] = tested on: HS 578T breast
[14] = tested on: MOLT-4 leukemia
[15] = tested on: HOP-92 NSCLC
[16] = tested on: OVCAR-8 ovarian
[17] = tested on: SNB-75 CNS
[18] = tested on: ACHN renal
[19] = tested on: UO-31 renal
[20] = tested on: SK-MEL-28 melanoma
[21] = tested on: MALME-3M melanoma
[22] = tested on: SK-MEL-5 melanoma
[23] = tested on: UACC-62 melanoma
[24] = tested on: SN12C renal
[25] = tested on: OVCAR-4 ovarian
[26] = tested on: MDA-MB-231 breast
[27] = tested on: SNB-19 CNS
[28] = tested on: 786-0 renal
[29] = tested on: SF-295 CNS
[30] = tested on: SR leukemia
[31] = tested on: OVCAR-3 ovarian
[32] = tested on: LOX IMVI melanoma
[33] = tested on: HCC-2998 colon
[34] = tested on: RXF 393 renal
[35] = tested on: HT29 colon
[36] = tested on: U251 CNS
[37] = tested on: SW-620 colon
[38] = tested on: EKVX NSCLC
[39] = tested on: A549 NSCLC
[40] = tested on: PC-3 prostate
[41] = tested on: IGROV1 ovarian
[42] = tested on: DU-145 prostate
[43] = tested on: COLO 205 colon
[44] = tested on: T-47D breast
[45] = tested on: HCT-116 colon
[46] = tested on: CAKI-1 renal
[47] = tested on: TK-10 renal
[48] = tested on: NCI-H226 lung
[49] = tested on: NCI-H23 lung
[50] = tested on: HOP-62 NSCLC
[51] = tested on: BT-549 breast
[52] = tested on: NCI/ADR-RES ovarian
[53] = tested on: K-562 leukemia
[54] = tested on: CCRF-CEM leukemia
[55] = tested on: A498 renal
[56] = tested on: NCI-H460 lung
[57] = tested on: NCI-H522 lung

In the case of `O=C(NCCCCNC(=O)OCc1ccc2c(Cl)cc(Cl)c(O)c2n1)OCc1ccc2c(Cl)cc(Cl)c(O)c2n1`, the GI50 [1] is reported as 890 nM, the TGI [1] is reported as > 100000 nM and the GI50 [2] is reported as 406 nM. The TGI [2] was > 100000 nM, the GI50 [3] was 336 nM and the TGI [3] was > 100000 nM. The GI50 [4] was 5120 nM, the TGI [4] was > 100000 nM and the GI50 [5] was 499 nM. For the same compound, the TGI [5] was 2200 nM, the GI50 [6] was 543 nM and the TGI [6] was > 100000 nM. For the same compound, the GI50 [7] was 288 nM, the TGI [7] was 1400 nM and the GI50 [8] was 1940 nM. For the same compound, the TGI [8] was > 100000 nM, the GI50 [9] was 31400 nM and the TGI [9] was > 100000 nM. The GI50 [10] was 47100 nM, the TGI [10] was > 100000 nM and the GI50 [11] was 502 nM. The TGI [11] was > 100000 nM, the GI50 [12] was 1250 nM and the TGI [12] was > 100000 nM. The GI50 [13] was 979 nM, the TGI [13] was > 100000 nM and the GI50 [14] was 591 nM. For the same compound, the TGI [14] was > 100000 nM, the GI50 [15] was 3860 nM and the TGI [15] was > 100000 nM. The GI50 [16] was 458 nM, the TGI [16] was > 100000 nM and the GI50 [17] was 1230 nM. For the same compound, the TGI [17] was > 100000 nM, the GI50 [18] was 537 nM and the TGI [18] was > 100000 nM. For the same compound, the GI50 [19] was 1650 nM, the TGI [19] was > 100000 nM and the GI50 [20] was 809 nM. The TGI [20] was > 100000 nM, the GI50 [21] was 2870 nM and the TGI [21] was > 100000 nM. For the same compound, the GI50 [22] was 1200 nM, the TGI [22] was 3950 nM and the GI50 [23] was 2210 nM. The TGI [23] was 86700 nM, the GI50 [24] was 762 nM and the TGI [24] was > 100000 nM. For the same compound, the GI50 [25] was 4470 nM, the TGI [25] was > 100000 nM and the GI50 [26] was 685 nM. The TGI [26] was > 100000 nM, the GI50 [27] was 4700 nM and the TGI [27] was > 100000 nM. The GI50 [28] was 4950 nM, the TGI [28] was > 100000 nM and the GI50 [29] was 4170 nM. For the same compound, the TGI [29] was > 100000 nM, the GI50 [30] was 422 nM and the TGI [30] was > 100000 nM. The GI50 [31] was 442 nM, the TGI [31] was > 100000 nM and the GI50 [32] was 720 nM. The TGI [32] was > 100000 nM, the GI50 [33] was 3620 nM and the TGI [33] was > 100000 nM. The GI50 [34] was 3380 nM, the TGI [34] was > 100000 nM and the GI50 [35] was 43700 nM. The TGI [35] was > 100000 nM, the GI50 [36] was 2840 nM and the TGI [36] was > 100000 nM. For the same compound, the GI50 [37] was 486 nM, the TGI [37] was > 100000 nM and the GI50 [38] was 10600 nM. For the same compound, the TGI [38] was > 100000 nM, the GI50 [39] was 6330 nM and the TGI [39] was > 100000 nM. For the same compound, the GI50 [40] was 1640 nM, the TGI [40] was > 100000 nM and the GI50 [41] was 1220 nM. The TGI [41] was > 100000 nM, the GI50 [42] was 855 nM and the TGI [42] was > 100000 nM. For the same compound, the GI50 [43] was 24400 nM, the TGI [43] was > 100000 nM and the GI50 [44] was 7610 nM. The TGI [44] was > 100000 nM, the GI50 [45] was 359 nM and the TGI [45] was > 100000 nM. For the same compound, the GI50 [46] was 782 nM, the TGI [46] was > 100000 nM and the GI50 [47] was 13800 nM. For the same compound, the TGI [47] was > 100000 nM, the GI50 [48] was 24300 nM and the TGI [48] was > 100000 nM. The GI50 [49] was 1830 nM, the TGI [49] was > 100000 nM and the GI50 [50] was 2610 nM. The TGI [50] was > 100000 nM, the GI50 [51] was 2270 nM and the TGI [51] was > 100000 nM. The GI50 [52] was 336 nM, the TGI [52] was > 100000 nM and the GI50 [53] was 586 nM. For the same compound, the TGI [53] was > 100000 nM, the GI50 [54] was 398 nM and the TGI [54] was > 100000 nM. The GI50 [55] was 295 nM, the TGI [55] was 5230 nM and the GI50 [56] was 521 nM. The TGI [56] was > 100000 nM.

For `COc1cc(-c2nc3ccccc3s2)ccc1OCCCCCOc1cc2c(cc1OC)C(=O)N1CCC[C@H]1C=N2`, the GI50 [1] was 284 nM, the TGI [1] was 6020 nM and the GI50 [2] was 32.4 nM. For the same compound, the TGI [2] was 701 nM, the GI50 [3] was 97.2 nM and the TGI [3] was 424 nM. It also gave a GI50 [4] of 177 nM, a TGI [4] of 674 nM and a GI50 [5] of 75.7 nM. For the same compound, the TGI [5] was 699 nM, the GI50 [6] was 206 nM and the TGI [6] was 1600 nM. It also gave a GI50 [7] of 86.4 nM, a TGI [7] of 286 nM and a GI50 [8] of 201 nM. It also gave a TGI [8] of 463 nM, a GI50 [9] of 253 nM and a TGI [9] of 1170 nM. It also gave a GI50 [10] of 154 nM, a TGI [10] of 7870 nM and a GI50 [11] of 76.2 nM. It also gave a TGI [11] of 257 nM, a GI50 [12] of 305 nM and a TGI [12] of 3530 nM. It also gave a GI50 [13] of 219 nM, a TGI [13] of 600 nM and a GI50 [14] of 41.3 nM. For the same compound, the TGI [14] was 2270 nM, the GI50 [15] was 100 nM and the TGI [15] was 397 nM. For the same compound, the GI50 [57] was 97.4 nM, the TGI [57] was 1140 nM and the GI50 [16] was 168 nM. For the same compound, the TGI [16] was > 69800 nM, the GI50 [17] was 191 nM and the TGI [17] was 779 nM. For the same compound, the GI50 [18] was 53.5 nM, the TGI [18] was 398 nM and the GI50 [20] was 255 nM. The GI50 [22] was 59 nM, the TGI [22] was 135 nM and the GI50 [23] was 114 nM. The TGI [23] was 265 nM, the GI50 [24] was 256 nM and the TGI [24] was 4540 nM. The GI50 [25] was 264 nM, the GI50 [26] was 145 nM and the TGI [26] was 1970 nM. The GI50 [27] was 213 nM, the TGI [27] was 4610 nM and the GI50 [28] was 84.3 nM. For the same compound, the TGI [28] was 380 nM, the GI50 [29] was 140 nM and the TGI [29] was > 63300 nM. For the same compound, the GI50 [30] was < 13.2 nM, the GI50 [32] was 129 nM and the TGI [32] was 7970 nM. For the same compound, the GI50 [33] was 125 nM, the TGI [33] was 300 nM and the GI50 [35] was 83.7 nM. The TGI [35] was 4270 nM, the GI50 [36] was 63.2 nM and the TGI [36] was 7140 nM. For the same compound, the GI50 [37] was 91.2 nM, the TGI [37] was 1030 nM and the GI50 [38] was 364 nM. The TGI [38] was 953 nM, the GI50 [40] was 103 nM and the TGI [40] was 665 nM. It also gave a GI50 [41] of 244 nM, a GI50 [42] of 104 nM and a TGI [42] of 5310 nM. The GI50 [43] was 99.2 nM, the TGI [43] was 332 nM and the GI50 [44] was 40.7 nM. For the same compound, the TGI [44] was 160 nM, the GI50 [45] was 38.7 nM and the TGI [45] was 10100 nM. For the same compound, the GI50 [47] was 334 nM, the TGI [47] was 14100 nM and the GI50 [48] was 212 nM. It also gave a TGI [48] of 528 nM, a GI50 [49] of 114 nM and a TGI [49] of 365 nM. The GI50 [50] was 85.1 nM, the TGI [50] was 950 nM and the GI50 [51] was 45.7 nM. The TGI [51] was 126 nM, the GI50 [52] was 376 nM and the TGI [52] was 4760 nM. It also gave a GI50 [53] of 32.1 nM, a TGI [53] of 2230 nM and a GI50 [54] of 27.5 nM. For the same compound, the TGI [54] was 2160 nM, the GI50 [55] was 199 nM and the TGI [55] was 358 nM. For the same compound, the GI50 [56] was 76.8 nM and the TGI [56] was 2060 nM.
